# Data from patent publication US20230348473A1, “SUBSTITUTED PYRIDINES AS PARP1 INHIBITORS” (Xinthera, Inc., priority 2022, published 2023).
# System: DLD-1 parental cells
# Experiment: Cell growth inhibition assay (CellTiter-Glo), DLD-1 parental
# Type: cell-based
# Settings: Homo sapiens, DLD-1, 168 h; 7 days, CellTiter Glo 2.0
# Excerpt: The objective of this study is to evaluate the effect of compound disclosed herein on cell proliferation through the cell viability assay in DLD-1 BRCA2(−/−) and parental isogenic pair and MDA-MB-436 (mutated BRCA1) cell lines. The CellTiter-Glo (CTG) based cell viability assay is designed to determine the number of viable cells in the culture because of compound effect, by quantifying ATP, which indicates the presence of metabolically active cells.
# DLD-1 BRCA2(−/−) and parental isogenic pair were cultured in RPMI 1640 supplemented with 10% fetal bovine serum (FBS), and MDA-MB-436 cells were cultured in DMEM supplemented with 10% FBS. Both are culture at 37° C. with 5% CO2. Invention compounds were distributed to the 384 well plate (Corning, 3764) using Echo acoustic liquid handler to form a 1:3 serially diluted final concentration with top dose of 10 or 30 μM. The cells were seeded into the plate in the density of 50 cells/well (DLD-1 parental), 200 cells/well (DLD-1 BRCA2−/−), or 500 cells/well (MDA-MB-436). After a short spun, the cells were cultured in a well moisturized incubator at 37° C. with 5% CO2 for 7 days without disturbance. The cell viability was measured by CellTiter Glo 2.0 assay kit (Promega, G9243), and growth inhibition rate was calculated and plotted against final compound concentration, and the data were fitted in Xfit to generate IC50.
smiles,measurement,value
[2H]C([2H])([2H])NC(=O)c1ccc(N2CCN(Cc3ccc4c5c(c(=O)[nH]c4c3F)CCO5)CC2)c(F)n1 [Example 22],EC50,> 30 µM
